Reference: ChEMBL document CHEMBL1201862, “PubChem BioAssay data set” (2004)
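Test compounds were applied to cells in 96-well plates for 48 hours at 5 doses. GI50 = concentration required for 50% inhibition of growth.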 Active and inactive are the calls of the source. Rule as the data show it: active = GI50 up to about 1.1 µM and inactive = higher.

Tests used:
Experiment in all cases: NCI-60 cell line screen, 48 h
786-0 = tested on: 786-0
A549 = tested on: A549
ACHN = tested on: ACHN
COLO 205 = tested on: COLO 205
HCT-116 = tested on: HCT-116
HOP-62 = tested on: HOP-62
HOP-92 = tested on: HOP-92
HT-29 = tested on: HT-29
Hs-578T = tested on: Hs-578T
K562 = tested on: K562
KM12 = tested on: KM12
M14 = tested on: M14
M19-MEL = tested on: M19-MEL
MOLT-4 = tested on: MOLT-4
NCI/ADR-RES = tested on: NCI/ADR-RES
OVCAR-4 = tested on: OVCAR-4
PC-3 = tested on: PC-3
SF-268 = tested on: SF-268
SK-MEL-28 = tested on: SK-MEL-28
SK-MEL-5 = tested on: SK-MEL-5

Measured: GI50

COc1ccc(-c2nc(N)n(C)c2SSc2c(-c3ccc(OC)cc3)nc(N)n2C)cc1
inactive: 786-0 5.77 µM | A549 17.5 µM | ACHN 3.94 µM | COLO 205 2.19 µM | HCT-116 2.65 µM | HOP-62 17.5 µM | HOP-92 2.28 µM | HT-29 9.59 µM | Hs-578T 9.16 µM | K562 2.83 µM | KM12 12.9 µM | M14 2.19 µM | M19-MEL 2.29 µM | MOLT-4 2.13 µM | NCI/ADR-RES 14.2 µM | OVCAR-4 6.59 µM | PC-3 6.34 µM | SF-268 12.6 µM | SK-MEL-28 3.61 µM | SK-MEL-5 2.08 µM

CCOC(=O)c1c(C)c2c(n1C)CCc1c[nH]nc1-2
inactive: A549 > 100 µM | COLO 205 > 100 µM | HCT-116 > 100 µM | HOP-62 > 100 µM | HOP-92 > 100 µM | HT-29 > 100 µM | K562 > 100 µM | KM12 > 100 µM | M19-MEL > 100 µM | MOLT-4 > 100 µM | NCI/ADR-RES > 100 µM | OVCAR-4 > 100 µM | SF-268 > 100 µM | SK-MEL-28 > 100 µM | SK-MEL-5 > 100 µM

Oc1cc(O)cc(/C=C/c2ccc(O)c(O)c2)c1 [PICEATANNOL]
inactive: A549 18.8 µM | COLO 205 23.3 µM | HCT-116 7.45 µM | HOP-62 16.3 µM | HOP-92 12.3 µM | HT-29 23.2 µM | K562 4.49 µM | KM12 3.52 µM | M19-MEL 12.2 µM | MOLT-4 5.51 µM | NCI/ADR-RES 16.6 µM | OVCAR-4 15.5 µM | SF-268 8.59 µM | SK-MEL-28 49.9 µM | SK-MEL-5 11.1 µM

Cc1ccc(OC(=O)N2C/C(=C\c3ccccc3)C(=O)/C(=C/c3ccccc3)C2)cc1
inactive: 786-0 17.1 µM | A549 > 69.5 µM | ACHN 26.7 µM | COLO 205 > 68.7 µM | HCT-116 2.13 µM | HOP-62 18.5 µM | HOP-92 > 100 µM | HT-29 4.93 µM | Hs-578T 20.9 µM | K562 3.94 µM | KM12 16.2 µM | M14 8.79 µM | M19-MEL 5.53 µM | MOLT-4 4.07 µM | OVCAR-4 23.5 µM | PC-3 27.6 µM | SF-268 34.1 µM | SK-MEL-28 25.7 µM | SK-MEL-5 20.6 µM
